Data on four molecules can be found in patent publication US4609666A, “Aromatase inhibiting derivatives of α,α-bis(4-halophenyl)methyltetrazoles and triazoles” (Eli Lilly and Company, priority 1984, dated 1986).

pEC50: −log10 of the molar value. Structures can show the parent of a compound that is named as a salt.

Assay [1] deals with T1, aromatase (Rattus norvegicus, UniProt P22443).
T1 construct: ovarian microsomes are obtained from rats treated with pregnant mares serum gonadotropin; from tissue; host or cells: ovary microsomes from rats treated with pregnant mares serum gonadotropin
T1 sequence (P22443 1-508): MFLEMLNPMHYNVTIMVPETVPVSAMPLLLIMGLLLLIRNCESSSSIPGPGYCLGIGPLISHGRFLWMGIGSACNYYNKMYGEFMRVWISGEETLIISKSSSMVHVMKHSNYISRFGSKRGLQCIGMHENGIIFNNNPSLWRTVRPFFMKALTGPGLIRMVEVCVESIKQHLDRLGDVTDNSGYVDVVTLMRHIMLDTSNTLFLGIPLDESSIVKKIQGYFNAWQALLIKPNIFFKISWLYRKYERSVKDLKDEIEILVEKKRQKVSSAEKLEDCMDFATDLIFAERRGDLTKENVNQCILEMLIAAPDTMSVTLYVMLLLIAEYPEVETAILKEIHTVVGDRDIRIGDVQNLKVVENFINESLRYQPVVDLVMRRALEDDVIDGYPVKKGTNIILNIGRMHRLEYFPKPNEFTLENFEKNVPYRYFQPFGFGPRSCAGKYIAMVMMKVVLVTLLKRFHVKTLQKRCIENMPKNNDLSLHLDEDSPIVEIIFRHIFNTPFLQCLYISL
The experiment in a line: Aromatase inhibition in the rat ovarian microsome assay. The conditions noted are these: rat ovarian microsomes; substrate (androstenedione) concentration 0.1 μM. In kind it is biochemical.
Description: In this test system, ovarian microsomes are obtained from rats treated with pregnant mares serum gonadotropin. Test compounds are added to reaction vials containing 0.1 μM 4-androstene-3,17-dione, 100,000 dpm 1,2[^3 H]-androstenedione, the microsomes and a NADPH generating system. The concentrations of the inhibitors tested ranged between 0.005 and 10 μM.

For assay [2], the system named is breast cancer. The settings on record: known aromatase inhibitors; cited from earlier work.

In assay [1], `Clc1ccc(C(c2ccc(Cl)cc2)c2cc[nH]n2)cc1` [3-[Bis(4-chlorophenyl)methyl]-1H-pyrazole hydrochloride] gave a pEC50 of 6.77.
As for `Clc1ccc(C(c2ccccc2)c2cn[nH]c2)c(Cl)c1` (stereo not shown) [4-[(2,4-Dichlorophenyl)phenylmethyl]-1H-pyrazole], the pEC50 in assay [1] is 6.51.
On to `CCC1(c2ccc(N)cc2)CCC(=O)NC1=O` (stereo not shown) [aminoglutethimide], for which the “effect in treatment of breast cancer” value in assay [2] is recorded as “beneficial effect in treatment of breast cancer”.
With `C[C@]12C=CC(=O)C=C1CC[C@@H]1[C@@H]2CC[C@]2(C)OC(=O)CC[C@@H]12` [testolactone], the “effect in treatment of breast cancer” value in assay [2] is on record as “beneficial effect in treatment of breast cancer”.
